Structures can show the parent of a compound that is named as a salt.
test system: Elongator complex protein 1 (ELPI, also referred to as IKBKAP); test: IKBKAP-HTRF assay (IKBKAP protein in lysates of FD patient-derived fibroblasts); format: cell-based, human; conditions: FD patient-derived fibroblasts GM04589, 48 hours, 7-point concentration curve
Procedure: The assay is used for the quantitative determination of Elongator complex protein 1 (ELPI, also referred to as IKBKAP) concentration in cell lysates using the HTRF® (Homogeneous Time-Resolved Fluorescence) technology. IKBKAP is detected in a sandwich HTRF assay by use of an anti-IKAP antibody labeled with a donor and an anti-IKAP antibody labeled with an acceptor.
Cells were thawed and incubated in DMEM-10% FBS for 72 hours. Cells were trypsinized, counted, and re-suspended to a concentration of 50,000 cells/ml in DMEM-10% FBS. A 199 μL aliquot of the cell suspensions were plated at 10,000 cells per well in a 96 well microtiter plate and incubated for 3 to 5 hours. […] Test compounds were serially diluted 3.16-fold in 100% DMSO to generate a 7-point concentration curve. A 1 μL aliquot of 200× compound solution was transferred to cell-containing wells, and cells were incubated for 48 hours in a cell culture incubator (37° C., 5% CO2, 100% relative humidity). Triplicate samples were set up for each compound concentration. After 48 hours, the supernatant was removed from the cells and 50 μL of the 1×LB4 lysis buffer, containing protease inhibitors, was added to the cells and incubated with shaking at room temperature for 1 hour. A 36 μL aliquot of this lysate was subsequently transferred to the 384-well plate containing 4 μL of the antibody solution (1:50 dilution of anti IKAP d2 and anti-IKAP K(9+8) in detection buffer). The 384-well plate was then centrifuged for 1 minute to bring the solutions to the bottom of the plate and incubated overnight at 4° C. Fluorescence for each well of the plate at 665 nm and 620 nm was measured was on the EnVision plate reader (Perkin Elmer). The ΔF for each sample is calculated by:
[formula] wherein Signal is the normalized fluorescence for each sample well and Blank is the average normalized average fluorescence for the Blank control wells.
The maximum fold increase (MFI) in IKBKAP protein abundance for compounds of Formula (I) or a form thereof relative to the vehicle control are provided in Table 1. MFI was calculated by dividing the ΔF value for each sample well by the sample ΔF for the vehicle control wells.
The EC2x for IKBKAP protein expression obtained from the 7-point concentration curve generated for each test compound according to the protocol in Biological Example 1 are also provided in Table 1. The term “EC2x for IKBKAP protein expression” is defined as the concentration of test compound that is effective in producing two times the amount of IKBKAP protein in a FD patient cell compared to the amount produced from the DMSO vehicle control.

| SMILES | EC2x for IKBKAP protein expression (concentration producing two times the amount of IKBKAP protein vs DMSO vehicle control) | MFI (maximum fold increase in IKBKAP protein abundance relative to the vehicle control) |
| --- | --- | --- |
| Cl.NCCCc1cc2c(NCc3ccco3)nc(Cl)nc2[nH]1 [Cpd 1, 6-(3-aminopropyl)-2-chloro-N-[(furan-2-yl)methyl]-7H-pyrrolo[2,3-d]pyrimidin-4-amine hydrochloride] | *** (between >0.02 μM and ≤0.5 μM is indicated by three stars (***)) | **** (between >3.9 and ≤4.9 is indicated by four stars (****)) |
| Cl.NCCCc1[nH]c2nc(Cl)nc(NCc3ccco3)c2c1F [Cpd 2, 6-(3-aminopropyl)-2-chloro-5-fluoro-N-[(furan-2-yl)methyl]-7H-pyrrolo[2,3-d]pyrimidin-4-amine hydrochloride] | *** (between >0.02 μM and ≤0.5 μM is indicated by three stars (***)) | *** (between >2.9 and ≤3.9 is indicated by three stars (***)) |
| CNCCc1cc2c(NCc3ccco3)nc(Cl)nc2[nH]1.Cl [Cpd 3, 2-chloro-N-[(furan-2-yl)methyl]-6-[2-(methylamino)ethyl]-7H-pyrrolo[2,3-d]pyrimidin-4-amine hydrochloride] | *** (between >0.02 μM and ≤0.5 μM is indicated by three stars (***)) | ***** (>4.9 is indicated by five stars (*****)) |
| CNC(C)Cc1cc2c(NCc3ccco3)nc(Cl)nc2[nH]1.Cl (stereo not drawn) [Cpd 4, 2-chloro-N-[(furan-2-yl)methyl]-6-[2-(methylamino)propyl]-7H-pyrrolo[2,3-d]pyrimidin-4-amine hydrochloride] | *** (between >0.02 μM and ≤0.5 μM is indicated by three stars (***)) | **** (between >3.9 and ≤4.9 is indicated by four stars (****)) |
| CNCCc1cc2c(NCc3nccs3)nc(Cl)nc2[nH]1.Cl [Cpd 5, 2-chloro-6-[2-(methylamino)ethyl]-N-[(1,3-thiazol-2-yl)methyl]-7H-pyrrolo[2,3-d]pyrimidin-4-amine hydrochloride] | *** (between >0.02 μM and ≤0.5 μM is indicated by three stars (***)) | ***** (>4.9 is indicated by five stars (*****)) |
| CNCCc1[nH]c2nc(Cl)nc(NCc3ccco3)c2c1F.Cl [Cpd 6, 2-chloro-5-fluoro-N-[(furan-2-yl)methyl]-6-[2-(methylamino)ethyl]-7H-pyrrolo[2,3-d]pyrimidin-4-amine hydrochloride] | *** (between >0.02 μM and ≤0.5 μM is indicated by three stars (***)) | ***** (>4.9 is indicated by five stars (*****)) |
| CN(C)CCc1cc2c(NCc3ccco3)nc(Cl)nc2[nH]1 [Cpd 7, 2-chloro-6-[2-(dimethylamino)ethyl]-N-[(furan-2-yl)methyl]-7H-pyrrolo[2,3-d]pyrimidin-4-amine] | * (An EC2x>1 μM is indicated by one star (*)) | * (An MFI≤1.9 is indicated by one star (*)) |
| Cl.NCCc1cc2c(NCc3ccco3)nc(Cl)nc2[nH]1 [Cpd 8, 6-(2-aminoethyl)-2-chloro-N-[(furan-2-yl)methyl]-7H-pyrrolo[2,3-d]pyrimidin-4-amine hydrochloride] | *** (between >0.02 μM and ≤0.5 μM is indicated by three stars (***)) | *** (between >2.9 and ≤3.9 is indicated by three stars (***)) |
| [2H]C([2H])([2H])NCCc1cc2c(NCc3ccco3)nc(Cl)nc2[nH]1 [Cpd 9, 2-chloro-N-[(furan-2-yl)methyl]-6-{2-[(^2H3)methylamino]ethyl}-7H-pyrrolo[2,3-d]pyrimidin-4-amine hydrochloride] | *** (between >0.02 μM and ≤0.5 μM is indicated by three stars (***)) | **** (between >3.9 and ≤4.9 is indicated by four stars (****)) |
| C[C@H](N)Cc1[nH]c2nc(Cl)nc(NCc3ccco3)c2c1F.Cl [Cpd 10, 6-[(2S)-2-aminopropyl]-2-chloro-5-fluoro-N-[(furan-2-yl)methyl]-7H-pyrrolo[2,3-d]pyrimidin-4-amine hydrochloride] | **** (between >0.005 μM and ≤0.02 μM is indicated by four stars (****)) | ***** (>4.9 is indicated by five stars (*****)) |
| CC(C)[C@H](N)Cc1cc2c(NCc3ccco3)nc(Cl)nc2[nH]1.Cl [Cpd 11, 6-[(2R)-2-amino-3-methylbutyl]-2-chloro-N-[(furan-2-yl)methyl]-7H-pyrrolo[2,3-d]pyrimidin-4-amine hydrochloride] | *** (between >0.02 μM and ≤0.5 μM is indicated by three stars (***)) | **** (between >3.9 and ≤4.9 is indicated by four stars (****)) |
| CC(C)[C@H](N)Cc1cc2c(NCc3ccncc3)nc(Cl)nc2[nH]1.Cl.Cl [Cpd 12, 6-[(2R)-2-amino-3-methylbutyl]-2-chloro-N-[(pyridin-4-yl)methyl]-7H-pyrrolo[2,3-d]pyrimidin-4-amine dihydrochloride] | *** (between >0.02 μM and ≤0.5 μM is indicated by three stars (***)) | ***** (>4.9 is indicated by five stars (*****)) |
| C[C@H](N)Cc1[nH]c2nc(Cl)nc(NCc3ccco3)c2c1Cl.Cl [Cpd 13, 6-[(2S)-2-aminopropyl]-2,5-dichloro-N-[(furan-2-yl)methyl]-7H-pyrrolo[2,3-d]pyrimidin-4-amine hydrochloride] | ***** (≤0.005 μM is indicated by five stars (*****)) | ***** (>4.9 is indicated by five stars (*****)) |
| CC(C)[C@H](N)Cc1[nH]c2nc(Cl)nc(NCc3ccco3)c2c1F.Cl [Cpd 14, 6-[(2R)-2-amino-3-methylbutyl]-2-chloro-5-fluoro-N-[(furan-2-yl)methyl]-7H-pyrrolo[2,3-d]pyrimidin-4-amine hydrochloride] | **** (between >0.005 μM and ≤0.02 μM is indicated by four stars (****)) | ***** (>4.9 is indicated by five stars (*****)) |
| CC(C)[C@H](N)Cc1[nH]c2nc(Cl)nc(NCc3ccncc3)c2c1F.Cl.Cl [Cpd 15, 6-[(2R)-2-amino-3-methylbutyl]-2-chloro-5-fluoro-N-[(pyridin-4-yl)methyl]-7H-pyrrolo[2,3-d]pyrimidin-4-amine dihydrochloride] | *** (between >0.02 μM and ≤0.5 μM is indicated by three stars (***)) | **** (between >3.9 and ≤4.9 is indicated by four stars (****)) |
| C[C@H](N)Cc1cc2c(NCc3ccco3)nc(Cl)nc2[nH]1 [Cpd 16, 6-[(2S)-2-aminopropyl]-2-chloro-N-[(furan-2-yl)methyl]-7H-pyrrolo[2,3-d]pyrimidin-4-amine] | **** (between >0.005 μM and ≤0.02 μM is indicated by four stars (****)) | **** (between >3.9 and ≤4.9 is indicated by four stars (****)) |
| CNCCc1[nH]c2nc(Cl)nc(NCc3ccco3)c2c1Cl.Cl [Cpd 17, 2,5-dichloro-N-[(furan-2-yl)methyl]-6-[2-(methylamino)ethyl]-7H-pyrrolo[2,3-d]pyrimidin-4-amine hydrochloride] | *** (between >0.02 μM and ≤0.5 μM is indicated by three stars (***)) | **** (between >3.9 and ≤4.9 is indicated by four stars (****)) |
| CNCCc1[nH]c2nc(Cl)nc(NCc3ccco3)c2c1Br [Cpd 18, 5-bromo-2-chloro-N-(furan-2-yl)methyl]-6-[2-(methylamino)ethyl]-7H-pyrrolo[2,3-d]pyrimidin-4-amine hydrochloride] | *** (between >0.02 μM and ≤0.5 μM is indicated by three stars (***)) | **** (between >3.9 and ≤4.9 is indicated by four stars (****)) |
